# Results as given in ChEMBL document CHEMBL4393720, “Design, synthesis and biological evaluation of bromophenol-thiazolylhydrazone hybrids inhibiting the interaction of translation initiation factors eIF4E/eIF4G as multifunctional agents for cancer treatment” (Eur J Med Chem, 2019).
# Calls of active or inactive are those of the source. The calls are words filed in the database; no cut-off is given here.
# Key:
# [1] = Toxicity in athymic nude mouse xenografted with human A549 cells assessed as effect on kidney morphological changes at 25 to 50 mg/kg, ip administered once daily for 21 days by H and E staining based assay; assay type: organism-based; conditions: in vivo, 504 h
# [2] = Toxicity in athymic nude mouse xenografted with human A549 cells assessed as effect on spleen morphological changes at 25 to 50 mg/kg, ip administered once daily for 21 days by H and E staining based assay; assay type: organism-based; conditions: in vivo, 504 h
# [3] = AUC (0 to 24 hrs) in female Sprague-Dawley rat at 2 mg/kg, iv measured up to 24 hrs by LC/MS-MS analysis; assay type: ADME, organism-based; set-up: time < 24 hr, dose 2 mg/kg, route intravenous; conditions: in vivo
# A549 = test: In vivo inhibition of eIF4E in human A549 cells xenografted in athymic nude mouse assessed as decrease in phosphorylation of eIF4E at 25 to 50 mg/kg, ip administered once daily for 21 days by Western blot analysis; assay type: functional, organism-based
# [4] = molecular target: Eukaryotic translation initiation factor 4E (Homo sapiens) (UniProt P06730); test: Inhibition of eIF4E phosphorylation in human A549 cells assessed as decrease in cyclin D1 level at 1 to 5 uM incubated for 48 hrs by western blot analysis; assay type: cell-based
# [5] = Acute toxicity in SPF Kunming mouse assessed as body weight at 2000 mg/kg, po administered as single dose measured at day 14 (reference value: 34.7g); assay type: organism-based; conditions: in vivo
# [6] = Cmax in female Sprague-Dawley rat at 10 mg/kg, po measured up to 24 hrs by LC/MS-MS analysis; assay type: ADME, organism-based; set-up: dose 10 mg/kg, route oral; conditions: in vivo
# HepG2 = test: Antiproliferative activity against human HepG2 cells assessed as inhibition of cell growth incubated for 48 hrs by MTT assay; assay type: functional, cell-based; conditions: HepG2, 48 h
# [7] = Subacute toxicity in SPF Kunming mouse assessed as liver morphological changes at 2000 mg/kg, po administered once a day for 14 days by H and E staining based microscopic analysis; assay type: organism-based; conditions: in vivo, 336 h
# [8] = Inhibition of PI3K/Akt/mTOR signalling pathway in human A549 cells assessed as reduction in Akt phosphorylation at 1 to 5 uM incubated for 48 hrs by Western blot analysis; assay type: cell-based
# Sequence of Eukaryotic translation initiation factor 4E (Homo sapiens) (P06730 whole entry): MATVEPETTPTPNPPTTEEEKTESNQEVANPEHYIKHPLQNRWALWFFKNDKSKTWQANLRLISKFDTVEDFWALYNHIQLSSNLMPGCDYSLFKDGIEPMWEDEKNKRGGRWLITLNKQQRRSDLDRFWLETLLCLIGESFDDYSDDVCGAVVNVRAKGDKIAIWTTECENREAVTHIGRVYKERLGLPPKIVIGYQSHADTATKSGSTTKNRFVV
structure (smiles),measurement,setting,value
Fc1ccc(/C=N/Nc2nc(-c3ccc(C(F)(F)F)cc3)cs2)cc1F,Activity,[1],Non-Toxic
same,Activity,[2],Non-Toxic
same,AUC(0-t) at 24 h,[3],133 µM·h
same,inhibition,A549,Active
same,inhibition,[4],Active
same,Activity,[5],35 g
same,Cmax,[6],960 nM
same,IC50,HepG2,14.5 µM
same,Activity,[7],Non-Toxic
same,inhibition,[8],Active
